Test results reported in PubChem BioAssay AID2060509 (Molecular Pharmacology Branch, DTP, NCI, 2025).

Tested on: 485176-168-R4-J1-PDC spheroids with HUVEC/MSC, viability
Assay: Anticancer human tumor 485176-168-R4-J1-PDC patient-derived pancreatic adenocarcinoma cell line growth inhibition [GQUAD]
Details: for IC50: curve of first compound; for viability, T/C: stronger effect = lower value
How it was run: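 Viability of tumor cells grown as complex spheroids with endothelial and stromal cells, exposed to drug combinations. Top concentration at or near clinical Cmax (else 10 microM), diluted in half-log increments.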

[1] = second compound 0.0316 µM, first compound 0.0316 µM
[2] = second compound 0.0316 µM, first compound 0.1 µM
[3] = second compound 0.0316 µM, first compound 0.316 µM
[4] = second compound 0.0316 µM, first compound 1 µM
[5] = second compound 0.0316 µM, first compound 3.16 µM
[6] = second compound 0.0316 µM, first compound 10 µM
[7] = second compound 0.1 µM, first compound 0.0316 µM
[8] = second compound 0.1 µM, first compound 0.1 µM
[9] = second compound 0.1 µM, first compound 0.316 µM
[10] = second compound 0.1 µM, first compound 1 µM
[11] = second compound 0.1 µM, first compound 3.16 µM
[12] = second compound 0.1 µM, first compound 10 µM
[13] = second compound 0.316 µM, first compound 0.0316 µM
[14] = second compound 0.316 µM, first compound 0.1 µM
[15] = second compound 0.316 µM, first compound 0.316 µM
[16] = second compound 0.316 µM, first compound 1 µM
[17] = second compound 0.316 µM, first compound 3.16 µM
[18] = second compound 0.316 µM, first compound 10 µM
[19] = second compound 1 µM, first compound 0.0316 µM
[20] = second compound 1 µM, first compound 0.1 µM
[21] = second compound 1 µM, first compound 0.316 µM
[22] = second compound 1 µM, first compound 1 µM
[23] = second compound 1 µM, first compound 3.16 µM
[24] = second compound 1 µM, first compound 10 µM
[25] = second compound 3.16 µM, first compound 0.0316 µM
[26] = second compound 3.16 µM, first compound 0.1 µM
[27] = second compound 3.16 µM, first compound 0.316 µM
[28] = second compound 3.16 µM, first compound 1 µM
[29] = second compound 3.16 µM, first compound 3.16 µM
[30] = second compound 3.16 µM, first compound 10 µM
[31] = second compound 10 µM, first compound 0.0316 µM
[32] = second compound 10 µM, first compound 0.1 µM
[33] = second compound 10 µM, first compound 0.316 µM
[34] = second compound 10 µM, first compound 1 µM
[35] = second compound 10 µM, first compound 3.16 µM
[36] = second compound 10 µM, first compound 10 µM
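Further: spheroids exposed to compounds for seven days before readout.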
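Wherever viability, T/C is given: percent viability relative to DMSO vehicle control wells as 100%.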

C#Cc1c(F)ccc2cc(O)cc(-c3ncc4c(N5CC6CCC(C5)N6)nc(OCC56CCCN5CC(F)C6)nc4c3F)c12 (stereo not drawn) + Cc1cnc(CNC(=O)c2c(=O)c3ccc(N4CCCN(C)CC4)nc3n3c2sc2ccccc23)cn1
IC50 (second compound 0.0316 µM): > 10000 nM | IC50 (second compound 0.1 µM): > 10000 nM | IC50 (second compound 0.316 µM): > 10000 nM | IC50 (second compound 1 µM): < 31.6 nM | IC50 (second compound 3.16 µM): < 31.6 nM | IC50 (second compound 10 µM): < 31.6 nM | viability, T/C [1]: 97% | viability, T/C [2]: 89.9% | viability, T/C [3]: 97.7% | viability, T/C [4]: 81% | viability, T/C [5]: 91.9% | viability, T/C [6]: 87.8% | viability, T/C [7]: 78.4% | viability, T/C [8]: 80% | viability, T/C [9]: 68.4% | viability, T/C [10]: 72.3% | viability, T/C [11]: 72.8% | viability, T/C [12]: 76.3% | viability, T/C [13]: 59.3% | viability, T/C [14]: 60% | viability, T/C [15]: 62.3% | viability, T/C [16]: 61.6% | viability, T/C [17]: 63.3% | viability, T/C [18]: 50.9% | viability, T/C [19]: 45.2% | viability, T/C [20]: 50.1% | viability, T/C [21]: 48.6% | viability, T/C [22]: 50.3% | viability, T/C [23]: 45.7% | viability, T/C [24]: 50.5% | viability, T/C [25]: 44% | viability, T/C [26]: 44.7% | viability, T/C [27]: 44.4% | viability, T/C [28]: 38.1% | viability, T/C [29]: 48.7% | viability, T/C [30]: 44.6% | viability, T/C [31]: 40.5% | viability, T/C [32]: 40.4% | viability, T/C [33]: 36.4% | viability, T/C [34]: 35.1% | viability, T/C [35]: 37.5% | viability, T/C [36]: 37.4%

O=c1[nH]cc(F)c(=O)[nH]1 + Cc1cnc(CNC(=O)c2c(=O)c3ccc(N4CCCN(C)CC4)nc3n3c2sc2ccccc23)cn1
IC50 (second compound 0.0316 µM): 847 nM | IC50 (second compound 0.1 µM): 272 nM | IC50 (second compound 0.316 µM): 248 nM | IC50 (second compound 1 µM): 202 nM | IC50 (second compound 3.16 µM): < 31.6 nM | IC50 (second compound 10 µM): < 31.6 nM | viability, T/C [1]: 84.7% | viability, T/C [2]: 77.4% | viability, T/C [3]: 66.1% | viability, T/C [4]: 45.9% | viability, T/C [5]: 43.5% | viability, T/C [6]: 43.6% | viability, T/C [7]: 63.3% | viability, T/C [8]: 73.5% | viability, T/C [9]: 47.2% | viability, T/C [10]: 47.1% | viability, T/C [11]: 46.4% | viability, T/C [12]: 43.6% | viability, T/C [13]: 53.8% | viability, T/C [14]: 66.1% | viability, T/C [15]: 47.4% | viability, T/C [16]: 45.3% | viability, T/C [17]: 35.1% | viability, T/C [18]: 45.7% | viability, T/C [19]: 50.5% | viability, T/C [20]: 54.7% | viability, T/C [21]: 48.3% | viability, T/C [22]: 38.2% | viability, T/C [23]: 36.4% | viability, T/C [24]: 41% | viability, T/C [25]: 40.6% | viability, T/C [26]: 44.1% | viability, T/C [27]: 37.2% | viability, T/C [28]: 32.8% | viability, T/C [29]: 34.5% | viability, T/C [30]: 31.3% | viability, T/C [31]: 41.5% | viability, T/C [32]: 45% | viability, T/C [33]: 33.5% | viability, T/C [34]: 30.3% | viability, T/C [35]: 34.4% | viability, T/C [36]: 34.3%

CC1COCCN1c1cc(C2(S(C)(=N)=O)CC2)nc(-c2ccnc3[nH]ccc23)n1 (stereo not drawn) + Cc1cnc(CNC(=O)c2c(=O)c3ccc(N4CCCN(C)CC4)nc3n3c2sc2ccccc23)cn1
IC50 (second compound 0.0316 µM): 2310 nM | IC50 (second compound 0.1 µM): 1010 nM | IC50 (second compound 0.316 µM): 196 nM | IC50 (second compound 1 µM): 53.5 nM | IC50 (second compound 3.16 µM): < 31.6 nM | IC50 (second compound 10 µM): < 31.6 nM | viability, T/C [1]: 96.4% | viability, T/C [2]: 82.9% | viability, T/C [3]: 89.2% | viability, T/C [4]: 44.8% | viability, T/C [5]: 59% | viability, T/C [6]: 15.1% | viability, T/C [7]: 73.8% | viability, T/C [8]: 82.6% | viability, T/C [9]: 53.6% | viability, T/C [10]: 39.7% | viability, T/C [11]: 51% | viability, T/C [12]: 12.1% | viability, T/C [13]: 54% | viability, T/C [14]: 62.7% | viability, T/C [15]: 47.2% | viability, T/C [16]: 28.2% | viability, T/C [17]: 36.4% | viability, T/C [18]: 11.9% | viability, T/C [19]: 50.3% | viability, T/C [20]: 51.5% | viability, T/C [21]: 41.6% | viability, T/C [22]: 28.9% | viability, T/C [23]: 36.8% | viability, T/C [24]: 11.9% | viability, T/C [25]: 45.8% | viability, T/C [26]: 41.6% | viability, T/C [27]: 38.5% | viability, T/C [28]: 23.9% | viability, T/C [29]: 28.7% | viability, T/C [30]: 11% | viability, T/C [31]: 41.4% | viability, T/C [32]: 36.7% | viability, T/C [33]: 37.1% | viability, T/C [34]: 27.5% | viability, T/C [35]: 28.1% | viability, T/C [36]: 12.8%

Cc1[nH]c2ccccc2c1CCNCc1ccc(/C=C/C(=O)NO)cc1 + CN(C)c1ccc(Nc2c3ccc(NC(=O)CCN4CCCC4)cc3nc3cc(NC(=O)CCN4CCCC4)ccc23)cc1
IC50 (second compound 0.0316 µM): 116 nM | IC50 (second compound 0.1 µM): 132 nM | IC50 (second compound 0.316 µM): 126 nM | IC50 (second compound 1 µM): 136 nM | IC50 (second compound 3.16 µM): 88.3 nM | IC50 (second compound 10 µM): 120 nM | viability, T/C (second compound 0.0316 µM, first compound 0.000999 µM): 102% | viability, T/C (second compound 0.0316 µM, first compound 0.00316 µM): 89.9% | viability, T/C (second compound 0.0316 µM, first compound 0.00999 µM): 82.7% | viability, T/C [1]: 69.4% | viability, T/C (second compound 0.0316 µM, first compound 0.0999 µM): 64.6% | viability, T/C [3]: 12.9% | viability, T/C (second compound 0.1 µM, first compound 0.000999 µM): 103% | viability, T/C (second compound 0.1 µM, first compound 0.00316 µM): 87.5% | viability, T/C (second compound 0.1 µM, first compound 0.00999 µM): 89.2% | viability, T/C [7]: 86.1% | viability, T/C (second compound 0.1 µM, first compound 0.0999 µM): 61.9% | viability, T/C [9]: 12.1% | viability, T/C (second compound 0.316 µM, first compound 0.000999 µM): 80.1% | viability, T/C (second compound 0.316 µM, first compound 0.00316 µM): 96.7% | viability, T/C (second compound 0.316 µM, first compound 0.00999 µM): 82.9% | viability, T/C [13]: 82% | viability, T/C (second compound 0.316 µM, first compound 0.0999 µM): 59.4% | viability, T/C [15]: 11.8% | viability, T/C (second compound 1 µM, first compound 0.000999 µM): 97.3% | viability, T/C (second compound 1 µM, first compound 0.00316 µM): 96.7% | viability, T/C (second compound 1 µM, first compound 0.00999 µM): 83% | viability, T/C [19]: 64.2% | viability, T/C (second compound 1 µM, first compound 0.0999 µM): 76.5% | viability, T/C [21]: 10% | viability, T/C (second compound 3.16 µM, first compound 0.000999 µM): 113% | viability, T/C (second compound 3.16 µM, first compound 0.00316 µM): 97.9% | viability, T/C (second compound 3.16 µM, first compound 0.00999 µM): 86% | viability, T/C [25]: 74.5% | viability, T/C (second compound 3.16 µM, first compound 0.0999 µM): 47.9% | viability, T/C [27]: 14.5% | viability, T/C (second compound 10 µM, first compound 0.000999 µM): 104% | viability, T/C (second compound 10 µM, first compound 0.00316 µM): 83.5% | viability, T/C (second compound 10 µM, first compound 0.00999 µM): 69.3% | viability, T/C [31]: 90.7% | viability, T/C (second compound 10 µM, first compound 0.0999 µM): 58.3% | viability, T/C [33]: 5.87%
